# Measured values taken from patent publication US20020164721A1, “Design of a polyepitopic construct for the induction of HLA-A2.1 restricted HIV 1 specific CTL responses using HHD mice” (priority 1999, published 2002).
# Where “and” joins values, the source holds several entries; their conditions need not be identical. Equal entries are not always repeated. Entries after “also recorded” stand apart in the source; their conditions may differ. Where two headings read alike, the source gives them in different places.
# Assays:
# [1] = test system: peptide-pulsed HHD-transfected RMAS cells; type: in vivo, HHD mice; details: for classification as immunogen: by number of responder mice and strength of responses, peptide in IFA; for Responder/tested mice: 100 μg peptide s.c. in IFA
# HLA-A2.1 molecules [2] = molecular target: T1, HLA-A2.1 molecules (Homo sapiens, UniProt P04439, D140Y/D185E/D98H/E176V/E277Q/G131W/G231S/I119V/I121R/I166T/I218V/L300P/L318F/N151K/N90K/P208A/P217A/Q86G/Q94H/R138H/R169H/T345S); type: binding
# T1 construct: Using TAP-deficient, HLA-A2.1^+ T2 cells, we evaluated these parameters in an immunofluorescence assay; endogenous in cells; host or cells: T2 cells (TAP-deficient, HLA-A2.1+)
# [3] = test system: peptide-pulsed HHD-transfected RMAS cells; type: in vivo, HHD mice; details: with helper peptide; for Responder/tested mice: 50 μg CD8 + 140 μg HBV core T13L in IFA
# HLA-A2.1 molecules [4] = molecular target: T1, HLA-A2.1 molecules; type: binding; details: wild-type HIV 1 peptides; T2 cells, 37° C., brefeldine A
# [5] = test system: HHD-transfected RMA-S cells loaded with variant peptides; test: Cross-recognition of the main HIV 1 natural variants by induced CTL; type: in vivo, HHD mice; details: CTL induced by the immunizing peptide; FIG. 4
# Experimental: Therefore, we tested, in the four latter cases, whether the elicited CTL responses by the selected wild-type or tyrosine substituted immunizing peptides could cross-recognize natural variants of a significant representation among HIV 1 isolates.
# Cytolytic activity was evaluated against peptide-loaded HHD-transfected RMA-S cells using Inf.m.G9L peptide-loaded cells as a negative control.
# [6] = test system: HHD-transfected RMA-S cells loaded with relevant peptide; test: CTL response of HHD mice injected s.c. with tumor epitopic peptide in IFA (51Cr-release assay); type: in vivo; details: for hierarchy of CTL inducers: peptide alone in IFA, by number of responding mice and level of specific lysis; for R/T (responder versus tested mice): peptide s.c. in IFA, no helper, responder = at least 10% specific lysis
# [7] = test system: HHD-transfected RMAS cells loaded with relevant peptide; test: CTL response of HHD mice immunized with recombinant Ty-VLP; type: in vivo; details: for lysis in % (highest specific lysis): recombinant Ty-VLP carrying the epitope, individual mice 1-6; for CTL responses (in words): recombinant Ty-VLP, all animals tested
# [8] = test system: HHD-transfected RMA-S cells loaded with relevant peptide; test: CTL response of A2A2Kb mice injected s.c. with tumor epitopic peptide in IFA (51Cr-release assay); type: in vivo; details: responder = at least 10% specific lysis
# [9] = test system: peptide-loaded HHD-transfected RMA-S cells and HHD-transfected HeLa cells expressing the polyepitope; test: Melanoma polyepitopic pCMV-B10 DNA immunization of HHD mice, CTL assay; type: in vivo; details: pCMV-B10 DNA with 10 melanoma epitopes, FIG. 1C and D
# [10] = test system: HHD-transfected RMAS cells loaded with relevant peptide; test: CTL response of HHD mice immunized with peptide-loaded dendritic cells; type: in vivo; details: for lysis in % (highest specific lysis): individual mice 1-6, usually 60/1 E/T; for lysis in % after a second in vitro restimulation: second restimulation with 10% TCGF, individual mice 1-6
# [11] = test system: HHD-transfected RMAS cells loaded with relevant peptide; test: CTL response of HHD mice immunized with lipopeptides; type: in vivo; details: lipopeptide of the epitope; individual mice 1-6
# [12] = test system: HHD-transfected RMA-S target cells loaded with relevant peptide; test: CTL response of HHD mice co-immunized in IFA with tumor peptide and HBVc.128 helper peptide; type: in vivo; details: for R/T (responder versus tested mice): 50 μg CD8 peptide + 140 μg HBVc.128 helper in IFA; for CTL response with helper peptide (in words): co-injected with HBVc.128 helper, compared with peptide alone
# [13] = test system: HHD-transfected RMAS cells loaded with relevant peptide; test: CTL response of HHD mice immunized with monoepitopic pCMV-B10 DNA; type: in vivo; details: for lysis in % (highest specific lysis): pCMV-B10 DNA encoding the epitope, individual mice 1-6; for CTL responses (in words): recombinant pCMV-B10-DNA, all animals tested
# [14] = wild-type HIV 1 peptides, reference I9V, T2 cells
Sequence,classification as immunogen [1],Responder/tested mice ([1]; without helper peptide),RA (relative affinity) (HLA-A2.1 molecules [2]; [14]),Responder/tested mice [3],"DC (half-life of stabilized peptide-HLA-A2.1 complexes, DC 50) (HLA-A2.1 molecules [4])",hierarchy of CTL inducers [6],R/T (responder versus tested mice) [6],lysis in % (highest specific lysis) [7],R/T (responder versus tested mice) [8],lysis in % (highest specific lysis) [10],lysis in % after a second in vitro restimulation [10],lysis in % (highest specific lysis) [11],R/T (responder versus tested mice) [12],lysis in % (highest specific lysis) [13],other results
LLDTGADDTV [L10V],intermediate,1/6,10,0/6,< 2 h,–,–,–,–,–,–,–,–,–,"Maximum specific lysis (%) ([1]; without helper peptide, each responder mouse): 48%"
"KLTPLCVSL [K9L, HIV 1 ENV gp120 (120-128) CD8 epitopic peptide]",intermediate,3/6,1.35,4/6,> 6 h,–,–,–,–,–,–,–,–,–,cross-recognition of natural HIV 1 variants (in words) [5]: lack of cross-recognition
"ALVEICTEM [A9M, HIV 1 POL (188-196) CD8 epitopic peptide]",intermediate,3/6,–,1/6,–,–,–,–,–,–,–,–,–,–,cross-recognition of natural HIV 1 variants (in words) [5]: cross-lysed significantly all main natural variants; Maximal specific lysis (%) ([3]; each responder mouse): 31%
"VLPDVFIRC [NA17-A.nt38, NA17-A nt38-64 epitopic peptide]",–,–,–,–,–,intermediate,4/7,55% and 39% and 50% and 60% and 59% and 61%,0/6,0% (2×) and 3% (2×) and 5% and 6%,(6) %; also recorded: (5) %; also recorded: (24) %; also recorded: (9) %; also recorded: (7) %; also recorded: (2) %,0% (2×) and 12% and 68% and 65% and 47%,5/6,35% and 43% and 47% and 44% and 40% and 54%,RA (relative affinity) (HLA-A2.1 molecules [2]): 1.52; CTL responses (in words) [7]: strong CTL responses; CTL response against the epitope after melanoma polyepitope DNA immunization (in words) [9]: Strong responses; CTL response with helper peptide (in words) [12]: stronger responses in a larger proportion of mice; CTL responses (in words) [13]: strong CTL responses
YLEPGPVTA [gp100.280],–,–,–,–,–,weak,3/16,8% (2×) and 3% and 1% and 4% and 18%,0/6,0%,(1) %; also recorded: (0) %,0% (2×) and 8% (2×) and 40% and 21%,2/8,0% (2×) and 8% and 36% and 21% and 9%,CTL response against the epitope after melanoma polyepitope DNA immunization (in words) [9]: did not elicit CTL responses; also recorded: No specific lysis
YMNGTMSOV [Tyrosinase.368-N],–,–,–,–,–,intermediate,4/15,0% and 61% and 58% and 39% and 29% and 17%,0/6,0% (4×) and 8% and 15%,(3) %; also recorded: (17) %; also recorded: (30) %; also recorded: (80) %; also recorded: (61) %; also recorded: (1) %,51% and 20% and 0% and 5% and 11% and 12%,5/12,6% and 12% and 16% and 13% and 11% and 38%,RA (relative affinity) (HLA-A2.1 molecules [2]): 2.2
EMMTACQGV [E9V],inefficient,0/6,–,0/6,< 2 h,–,–,–,–,–,–,–,–,–,–
VLDVGDAYFSV [V11V],intermediate,3/6,4.5,2/6,2 h,–,–,–,–,–,–,–,–,–,–
"YLSGANLNL [CEA.571, CEA 571-579 epitopic peptide]",–,–,–,–,–,strong,6/6,56% and 59% and 51% and 58% and 46% and 62%,0/6,4% (2×) and 1% (2×) and 0% and 2%,(1) %; also recorded: (5) %; also recorded: (2) %; also recorded: (0) %; also recorded: (22) %,0% (2×) and 8% (2×) and 34% and 3%,3/6,19% and 66% and 40% and 65% and 62% and 55%,CTL responses (in words) [7]: strong CTL responses; CTL response with helper peptide (in words) [12]: less immunogenic; CTL responses (in words) [13]: strong CTL responses
